# Experimental data as given in patent US11229664B2, “Treatment of myelosuppression” (priority 2012, dated 2022).
# Values joined by “and” are separate entries in the source; they are usually repeats but may differ in a detail not shown here. Equal entries are not always repeated. Where two headings read alike, the source gives them in different places.
# Assays:
# [1] = tested on: CA19-9 (carbohydrate antigen 19-9); assay: Clinical trial: serum level of CA19-9; type: in vivo, human; details: for CA19-9 Serum levels: individual patients, ODSH adjunctive to gemcitabine and nab-paclitaxel
# Procedure: Treatment consisted of a series of 28-day cycles, wherein the last day of one cycle (e.g., day 28, cycle 1) was immediately followed by the first day of the next cycle (e.g., day 1, cycle 2). In each 28-day treatment cycle, patients were dosed at days 1, 8, and 15 (three weeks of medication followed by one week of rest) as follows. First, nab-paclitaxel at 125 mg/m^2 was administered as an intravenous infusion over 30 minutes. […] Nab-paclitaxel and gemcitabine therapy was given as described in the prescribing information for Abraxane® and Gemzar®. See also, Von Hoff et al., 2011, J. Clinical Oncology 29:1-7). […]
# Blood samples were also tested on day 1 of each treatment cycle for the serum level of CA19-9 (carbohydrate antigen 19-9) a marker used to assess the efficacy of the chemotherapy agents in treating pancreatic cancer. See. e.g., Maeda, 2011, Int. J. Clin. Oncol. 16(5):539-45. Reduction in the serum level of CA19-9 is indicative of chemotherapeutic efficacy against the pancreatic cancer. Tumor response and disease status was measured according to Response Evaluation Criteria in Solid Tumors (RECIST) Guidelines Version 1.1. Eur. J. Cancer, 2009, 45:228-247. A reduction of at least 30% in the sum of the diameters of target lesions (measurable lesions present at screening, up to 2 lesions per involved organ) was scored as a partial response. Patients were scored as having stable disease where the smallest sum of target lesion diameters neither decreased nor increased sufficiently to qualify as a partial response or progressive disease.
# [2] = type: in vivo, human; details: ODSH adjunct to gemcitabine/nab-paclitaxel
# Procedure: Patients were also assessed for other side effects of chemotherapy, including fatigue, sensory neuropathy, nausea, and vomiting, each of which was graded according to severity. Grades were: 0 (normal), 1 (mild), 2 (moderate), 3 (severe) and 4 (life-threatening).
# [3] = for Deaths: N = 10 per group
# Procedure: All experiments were conducted on female athymic nude mice (Hsd:Athymic Nude-Foxn1nu) supplied by Harlan (Indianapolis, Ind.). Mice were received at four weeks of age, 12-15 grams in weight, and were acclimated for seven days prior to handling. The mice were housed in microisolator cages (Lab Products, Seaford, Del.) and maintained under specific pathogen-free conditions. All procedures were carried out under appropriate institutional guidelines for animal care.
# Seven days following inoculation, tumors were measured using calipers and tumor weight was calculated using the animal study management software. […] Body weights were recorded when the mice were randomized and were taken twice weekly thereafter in conjunction with tumor measurements, on each of Days 1, 4, 8, 11, 15, 18, 22, 26, 30, 33, and 36.
# The study was terminated when the vehicle control reached an endpoint of 1500 mg, on Day 36.
# [4] = tested on: partial thromboplastin time (aPTT); assay: Clinical trial: partial thromboplastin time (aPTT) during ODSH infusion; type: in vivo, human; details: for aPTT: individual patients
# Source text: As a substantially non-anticoagulant heparinoid, ODSH can be administered at a dose that is greater than the fully anticoagulant dose of unfractionated heparin, without concern for anticoagulant effect, as shown in the Results below.
# Lack of anticoagulation by ODSH was confirmed by monitoring partial thromboplastin time (aPTT) during ODSH infusion, at days 1, 3, 10, and 17 of treatment cycle 1. Normal range of aPTT is about 27 to 35 seconds+/−15%.
# [5] = A2780 xenograft study: body weight; type: in vivo, athymic female mice; details: Group 2: 48 mg/kg IV QD + 24 mg/kg SC BID, individual mice, listed as PGX ODSH
# Procedure: ODSH (50 mg/mL stock concentration) was made by Pyramid Laboratories, Inc. and stored at room temperature until use. As described further below, ODSH was administered either intravenously (IV), at a dose of 48 mg/kg and volume of 10 mL/kg, or subcutaneously (SC) at a dose of 24 mg/kg and volume of 5 ml/kg. Carboplatin obtained from a clinical supplier was stored at 4° C. until use. Carboplatin was administered by intraperitoneal injection (IP) at a dose of 80 mg/kg and volume of 10 mL/kg. Saline solution (0.9% NaCl) was used as a vehicle control for ODSH and administered by the same routes and in the same volumes as ODSH.
# Human ovarian cancer cell line A2780 was used in the murine xenograft experiments as follows. Approximately 5×10^6 A2780 cells were used per mouse, injected subcutaneously into the right flank in 0.1 mL of 50% Matrigel/50% media. The study was initiated when tumors reached a size of 90-130 mg. 40 mice were used, 10 per treatment regimen. The mice were normal athymic female mice, aged 6-7 weeks, housed in microisolator cages and maintained under pathogen-free conditions. Tumor and body weights were measured three times per week.
# Four treatment groups were studied.
# [6] = Table 13, first column group, headed Day 22
# [7] = Table 13, second column group, headed Day 26
# [8] = ten mice per group, BxPC-3 xenograft study
substance,measurement,setting,value
"substantially 2-O, 3-O desulfated heparin [ODSH]",Patients in whom serum CA19-9 level decreased,[1]; ODSH adjunct to gemcitabine/nab-paclitaxel,8 of 10
same,CA19-9 Serum levels,[1]; Cycle 1 Day 1,"395 U/mL and 70,086 U/mL and 2,138 U/mL and 483 U/mL and 11 U/mL and 326 U/mL and 4,775 U/mL and 125 U/mL and 6,186 U/mL and 6,275 U/mL"
same,CA19-9 Serum levels,[1]; Cycle 2 Day 1,"490 U/mL and 22,958 U/mL and 502 U/mL and 453 U/mL and 17 U/mL and 710 U/mL and 5,934 U/mL and 71 U/mL and 4,392 U/mL and 4,018 U/mL"
same,CA19-9 Serum levels,[1]; Cycle 3 Day 1,"251 U/mL and 10,286 U/mL and 328 U/mL and 205 U/mL and 15 U/mL and 164 U/mL and 8,529 U/mL and 27 U/mL and 2,669 U/mL and 1,433 U/mL"
same,CA19-9 Serum levels,[1]; Cycle 4 Day 1,"108 U/mL and 288 U/mL and 110 U/mL and 20 U/mL and 69 U/mL and 9,926 U/mL and 15 U/mL and 2405 U/mL and 348 U/mL"
same,"Patients experiencing no more than Grade 1 side effects (fatigue, sensory neuropathy, nausea, vomiting)",[2],more than 50%
same,Day by which the mice recovered their weight,[3]; BxPC-3 xenograft study,≤ 22 days
same,Day on which maximum weight loss was reached,[3]; BxPC-3 xenograft study,11 days
same,Tolerability / toxicity of the treatment regimen (in words),"[3]; BxPC-3 xenograft study, doses of Table 1",well-tolerated
same,Average Weight,[3]; Day 1,21.54 g
same,% Weight Loss or Gain,[3]; Day 4,−1.67%
same,Average Weight,[3]; Day 4,21.18 g
same,% Weight Loss or Gain,[3]; Day 8,−1.67%
same,Average Weight,[3]; Day 8,21.18 g
same,% Weight Loss or Gain,[3]; Day 11,−2.74%
same,Average Weight,[3]; Day 11,20.95 g
same,% Weight Loss or Gain,[3]; Day 15,−2.14%
same,Average Weight,[3]; Day 15,21.08 g
same,% Weight Loss or Gain,[3]; Day 18,−2.32%
same,Average Weight,[3]; Day 18,21.04 g
same,% Weight Loss or Gain,[3]; Day 22 (Table 12),0.09%
same,Average Weight,[3]; Day 22 (Table 12),21.56 g
same,% Weight Loss or Gain,[3]; Day 26 (Table 12),2.79%
same,Average Weight,[3]; Day 26 (Table 12),22.14 g
same,% Weight Loss or Gain,[3]; [6],4.60%
same,Average Weight,[3]; [6],22.53 g
same,% Weight Loss or Gain,[3]; [7],4.27%
same,Average Weight,[3]; [7],22.46 g
same,Deaths,[3]; Total deaths on or before Day 26,0
same,Deaths,[3]; Total deaths on or before Day 36,0
same,Maximum weight loss,"[3]; body weight of mice, BxPC-3 xenograft study",2.7%
same,Starting Weight,"[3]; group mean body weight at start, dose, schedule and route per group as in table",21.54 g
same,% Weight Loss or Gain,"[3]; mouse, in vivo",4.92%
same,Average Weight,"[3]; mouse, in vivo",22.60 g
same,Mice with bruising on the tails or abdomen (site of injection),[3]; [8],All ten
same,Mice with swelling of the tail,[3]; [8],One of the ten
same,Anticoagulation as determined by partial thromboplastin time (aPTT),[4]; 4 mg/kg bolus + 0.375 mg/kg/hr 48 h,did not result in anticoagulation
same,aPTT,[4]; Cycle 1 Day 1,29 seconds (2×) and 24 seconds and 36 seconds and 33 seconds and 28 seconds and 26 seconds and 25 seconds and 27 seconds
same,aPTT,[4]; Cycle 1 Day 3,28 seconds and 33 seconds (2×) and 43 seconds and 38 seconds and 31 seconds (3×) and 34 seconds
same,aPTT,[4]; Cycle 1 Day 10,34 seconds (2×) and 32 seconds and 38 seconds and 35 seconds and 31 seconds (2×) and 33 seconds and 36 seconds
same,aPTT,[4]; Cycle 1 Day 17,34 seconds and 28 seconds and 30 seconds (2×) and 42 seconds and 36 seconds and 33 seconds and 29 seconds
same,"Individual weights, Day 1 Weight",[5]; Day 1 (baseline),22.1 g and 20.3 g and 21.0 g and 21.8 g and 21.6 g and 21.4 g and 19.8 g (2×) and 20.9 g and 19.7 g
same,Day 4 Weight change,[5]; Day 4,3.6% and 1.5% and −0.5% and −1.8% and 6.5% and 1.9% and −1.0% and 5.6% and 10.0% and −2.5%
same,"Individual weights, Day 4 Weight",[5]; Day 4,22.9 g and 20.6 g and 20.9 g (2×) and 21.4 g and 23.0 g (2×) and 21.8 g and 19.6 g and 19.2 g
same,Day 6 Weight change,[5]; Day 6,5.0% and 1.5% and 1.0% and −1.4% and 13.4% and 2.8% and 2.0% and 7.6% and 8.1% and −2.5%
same,"Individual weights, Day 6 Weight",[5]; Day 6,23.2 g and 20.6 g and 21.2 g and 21.5 g and 24.5 g and 22.0 g and 20.2 g and 21.3 g and 22.6 g and 19.2 g
same,Day 8 Weight change,[5]; Day 8,5.0% and 5.4% and 2.9% and 2.3% and 16.2% and 5.6% (2×) and 12.1% and 6.7% and 2.0%
same,"Individual weights, Day 8 Weight",[5]; Day 8,23.2 g and 21.4 g and 21.6 g and 22.3 g (2×) and 25.1 g and 22.6 g and 20.9 g and 22.2 g and 20.1 g
same,Day 11 Weight change,[5]; Day 11,4.5% and 10.3% and 4.8% (2×) and 4.1% and 17.6% and 8.4% and 5.6% and 14.6% and 6.1%
same,"Individual weights, Day 11 Weight",[5]; Day 11,23.1 g and 22.4 g and 22.0 g and 22.7 g (2×) and 25.4 g and 23.2 g and 20.9 g (2×) and 21.9 g
same,Day 14 Weight change,[5]; Day 14,10.0% and 14.3% and 8.6% and 8.7% and 23.6% and 11.2% (2×) and 11.1% and 17.2% and 9.6%
same,"Individual weights, Day 14 Weight",[5]; Day 14,24.3 g and 23.2 g (2×) and 22.8 g and 23.7 g and 26.7 g and 23.8 g and 22.0 g and 22.9 g and 21.9 g
same,Day 18 Weight change,[5]; Day 18,5.9% and 14.3% and 11.0% and 6.4% and 22.2% and 11.2% and 1.0% and 10.1% and 10.0% and 7.6%
same,"Individual weights, Day 18 Weight",[5]; Day 18,23.4 g and 23.2 g (2×) and 23.3 g and 26.4 g and 23.8 g and 20.0 g and 21.8 g and 23.0 g and 21.2 g
same,Day 21 Weight change,[5]; Day 21,7.2% and 18.2% and 10.5% and 10.1% and 22.2% and 12.6% and 3.0% and 10.6% and 9.6% and 11.2%
same,"Individual weights, Day 21 Weight",[5]; Day 21,23.7 g and 24.0 g (2×) and 23.2 g and 26.4 g and 24.1 g and 20.4 g and 21.9 g (2×) and 22.9 g
same,Day 25 Weight change,[5]; Day 25,19.7% and 31.0% and 9.6% and 18.2% and 14.8%
same,"Individual weights, Day 25 Weight",[5]; Day 25,24.3 g and 28.3 g and 21.7 g and 23.4 g and 24.0 g
same,Day 28 Weight change,[5]; Day 28,23.2% and 32.9% and 15.7% and 20.2% and 15.8%
same,"Individual weights, Day 28 Weight",[5]; Day 28,29.0 g and 28.7 g and 22.9 g and 23.8 g and 24.2 g
